The first series has as its target T1, μ-opioid receptor (Rattus norvegicus, UniProt P33535).
T1 construct: the forebrains are homogenized in Tris buffer in a Teflon®-glass homogenizer; from tissue; host or cells: forebrain of male Wistar rats (particulate membrane preparation)
Put plainly: Rat brain μ-opioid receptor binding assay ([3H]DAMGO). Conditions: 10 nM solutions of the compounds, read-out: MOR binding Ki. In outline:
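Rat forebrain membranes from male Wistar rats, prepared in 50 mM Tris HCl pH 7.4, used for [3H]DAMGO binding. Filter-bound radioactivity measured by scintillation counting.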
T1 sequence (P33535 whole entry): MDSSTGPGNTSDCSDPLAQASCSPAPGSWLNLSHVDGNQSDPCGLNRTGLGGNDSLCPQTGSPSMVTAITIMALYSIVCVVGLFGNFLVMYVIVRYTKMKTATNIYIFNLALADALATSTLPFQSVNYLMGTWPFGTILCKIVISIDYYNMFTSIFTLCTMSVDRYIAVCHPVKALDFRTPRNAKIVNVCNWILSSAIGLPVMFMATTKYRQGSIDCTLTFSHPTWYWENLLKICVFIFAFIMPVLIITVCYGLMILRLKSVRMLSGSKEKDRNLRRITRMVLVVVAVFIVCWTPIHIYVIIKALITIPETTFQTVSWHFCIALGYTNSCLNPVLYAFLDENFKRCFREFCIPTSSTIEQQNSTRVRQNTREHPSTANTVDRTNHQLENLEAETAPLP
Usually Ki stands for a dissociation constant, usually derived from enzyme kinetics or from competition with a known ligand. On to `CCNC(=O)c1ccc(C(Br)=C2CC3CCC(C2)N3Cc2ccc3ccccc3n2)cc1` [Cpd 25], for which the Ki came to 95 nM.
Still for that read-out and setting: with `CCNC(=O)c1ccc(C(=C2CC3CCC(C2)N3Cc2ccc(C(=O)O)o2)c2cccc(C(=O)O)c2)cc1` [Cpd 87] the figure was 815 nM; with `CCN(CC)C(=O)c1ccc(C=C2CC3CCC(C2)N3Cc2ccsc2)cc1` [Cpd 52], 6490 nM; with `CCNC(=O)c1ccc(C=C2CC3CCC(C2)N3Cc2sccc2C)cc1` [Cpd 38], 236 nM.
In the case of `CCNC(=O)c1ccc(C=C2CC3CCC(C2)N3Cc2ccncc2)cc1` [Cpd 58], the inhibition constant Ki came out at 1180 nM.
With `CCNC(=O)c1ccc(C(=C2CC3CCC(C2)N3Cc2ccco2)c2ccc([N+](=O)[O-])cc2)cc1` [Cpd 123], the inhibition constant (Ki) turned out to be 34.2 nM.
In the case of `CCNC(=O)c1ccc(C(=C2CC3CCC(C2)N3Cc2ccoc2)c2ccc3c(c2)OCO3)cc1` [Cpd 10], the Ki stood at 1.06 nM.

Still in this series, the particulars now being: MOR binding Ki.
As to `CNC(=O)c1ccc(C=C2CC3CCC(C2)N3)cc1` [Cpd 103, 4-(8-Aza-bicyclo[3.2.1]oct-3-ylidenemethyl)-N-methyl-benzamide], the affinity, expressed as Ki, was 10600 nM.
With `CCNC(=O)c1ccc(C=C2CC3CCC(C2)N3CCC(C(=O)N(C)C)(c2ccccc2)c2ccccc2)cc1` [Cpd 107, 4-[8-(3-Dimethylcarbamoyl-3,3-diphenyl-propyl)-8-aza-bicyclo[3.2.1]oct-3-ylidenemethyl]-N-ethyl-benzamide], affinity was put at a Ki of 22.8 nM.
Still for that read-out and setting: for `CCNC(=O)c1ccc(C(=C2CC3CCC(C2)N3Cc2ccc3ccccc3n2)c2ccc3c(c2)OCO3)cc1` [Cpd 9] the value was 34.1 nM; for `CCNC(=O)c1ccc(C(=C2CC3CCC(C2)N3CCc2ccccc2)c2ccc(C(=O)O)cc2)cc1` [Cpd 99], 5290 nM.
The same measure, in the same setting: with `CCNC(=O)c1ccc(C(=C2CC3CCC(C2)N3Cc2ccco2)c2nnn[nH]2)cc1` (single isomer, unassigned) [Cpd 203] the figure was 5450 nM.
The same measure, in the same setting: with `CCNC(=O)c1ccc(C(=C2CC3CCC(C2)N3Cc2ccsc2)c2ccc([N+](=O)[O-])cc2)cc1` [Cpd 128] the figure was 4.27 nM; with `CCNC(=O)c1ccc(C=C2CC3CCC(C2)N3Cc2ccc(NC(C)=O)cc2)cc1` [Cpd 31], 25.6 nM; with `CNC(=O)c1ccc(C=C2CC3CCC(C2)N3CC2CC2)cc1` [Cpd 105], 5620 nM.
`CCNC(=O)c1ccc(C(=C2CC3CCC(C2)N3Cc2ccc3ccccc3n2)c2cccc(C#N)c2)cc1` [Cpd 20] gave a Ki of 129 nM.
Molecule `CCNC(=O)c1ccc(C=C2CC3CCC(C2)N3CC#Cc2ccccc2)cc1` [Cpd 59] yielded an inhibition constant (Ki) of 31.6 nM.
Same read-out and setting: with `CCNC(=O)c1ccc(C(=C2CC3CCC(C2)N3CC=C(C)C)c2ccc(S(N)(=O)=O)cc2)cc1` [Cpd 142] the figure was 4.01 nM.
Same read-out and setting: for `CCNC(=O)c1ccc(C(=C2CC3CCC(C2)N3CC=C(C)C)c2ccc([N+](=O)[O-])cc2)cc1` [Cpd 136] the value was 3.03 nM; for `CCNC(=O)c1ccc(C(=C2CC3CCC(C2)N3Cc2ccccn2)c2cc(C(=O)O)cc([N+](=O)[O-])c2)cc1` [Cpd 154], 91.3 nM; for `CCNC(=O)c1ccc(C(C#N)=C2CC3CCC(C2)N3Cc2ccoc2)cc1` (single isomer, unassigned) [Cpd 210], 2.3 nM.
As to `CCNC(=O)c1ccc(C(=C2CC3CCC(C2)N3CC=C(C)C)c2cc(N)cc(C(=O)O)c2)cc1` [Cpd 114], the inhibition constant Ki worked out at 4830 nM.
On the same count and under the same terms, with `CCNC(=O)c1ccc(C(=C2CC3CCC(C2)N3Cc2ccc3ccccc3n2)c2cccc(F)c2)cc1` [Cpd 3] the figure was 74.1 nM; with `CCNC(=O)c1ccc(C(=C2CC3CCC(C2)N3Cc2ccsc2)c2cccc(CN)c2)cc1` [Cpd 162], 849 nM; with `CCNC(=O)c1ccc(C(=C2CC3CCC(C2)N3Cc2ccccn2)c2cccc(-c3nnn[nH]3)c2)cc1` [Cpd 165], 54.1 nM.
The same measure, in the same setting: for `CCNC(=O)c1ccc(C(=C2CC3CCC(C2)N3Cc2ccco2)c2cccc(C(=O)O)c2)cc1` [Cpd 80, 3-[(4-Ethylcarbamoyl-phenyl)-(8-furan-2-ylmethyl-8-aza-bicyclo[3.2.1]oct-3-ylidene)-methyl]-benzoic acid] the value was 119 nM.
In the case of `CCNC(=O)c1ccc(C(=C2CC3CCC(C2)N3Cc2ccco2)c2cccc(-c3nnn[nH]3)c2)cc1` [Cpd 164, N-ethyl-4{(8-furan-2-ylmethyl-8-aza-bicyclo[3.2.1]oct-3-ylidene)-[3-(1H-tetrazol-5-yl)-phenyl]-methyl}-benzamide], the affinity, expressed as Ki, was 2.32 nM.
The same measure, in the same setting: with `CCNC(=O)c1ccc(C(=C2CC3CCC(C2)N3Cc2ccc3ccccc3n2)c2cncnc2)cc1` [Cpd 101] the figure was 113 nM; with `CCNC(=O)c1ccc(C(=C2CC3CCC(C2)N3CC(=O)c2cc(C(=O)c3ccc(Cl)cc3)cn2C)c2ccccc2)cc1` [Cpd 88, 4-[(8{2-[4-(4-Chloro-benzoyl)-1-methyl-1H-pyrrol-2-yl]-2-oxo-ethyl}-8-azabicyclo[3.2.1]oct-3-ylidene)-phenyl-methyl]-N-ethyl-benzamide], 551 nM; with `CCNC(=O)c1ccc(C(=C2CC3CCC(C2)N3Cc2ccccn2)c2ccc(C(=O)O)cc2)cc1` [Cpd 98], 203 nM.
The same measure, in the same setting: for `CCNC(=O)c1ccc(C(=C2CC3CCC(C2)N3Cc2ccccn2)c2cccc(CO)c2)cc1` [Cpd 181] the value was 6.04 nM.
On the same count and under the same terms, with `CCNC(=O)c1ccc(C(=C2CC3CCC(C2)N3Cc2cccs2)c2ccc(S(N)(=O)=O)cc2)cc1` [Cpd 141] the figure was 1.05 nM.
With `CCNC(=O)c1ccc(C(=C2CC3CCC(C2)N3Cc2ccsc2)c2cc(C(=O)O)cc([N+](=O)[O-])c2)cc1` [Cpd 161], the inhibitory constant (Ki) is 10000 nM.
Still for that read-out and setting: with `CCNC(=O)c1ccc(C(=C2CC3CCC(C2)N3Cc2ccc3ccccc3n2)c2cccc(NC(C)=O)c2)cc1` [Cpd 72] the figure was 11.1 nM; with `CCNC(=O)c1ccc(C(C#N)=C2CC3CCC(C2)N3Cc2ccoc2)cc1` [Cpd 143], 1.03 nM; with `CCNC(=O)c1ccc(C(=C2CC3CCC(C2)N3CC=C(C)C)c2cc(C(=O)O)cc([N+](=O)[O-])c2)cc1` [Cpd 155], 74.3 nM.
The same measure, in the same setting: with `CCNC(=O)c1ccc(C(=C2CC3CCC(C2)N3Cc2ccc(NC(C)=O)cc2)c2cnc3ccccc3c2)cc1` [Cpd 14] the figure was 959 nM; with `CCNC(=O)c1ccc(C(=C2CC3CCC(C2)N3CC=C(C)C)c2ccc(CCC(=O)O)cc2)cc1` [Cpd 137], 9.74 nM.

Test system in another series: not given
Assay: not given
Conditions: not given
For orientation: melting point means the temperature of the solid-liquid transition. `CNC(=O)c1ccc(C=C2CC3CCC(C2)N3)cc1` [Cpd 103, 4-(8-Aza-bicyclo[3.2.1]oct-3-ylidenemethyl)-N-methyl-benzamide] yielded a melting point of 164 to 166 °C.
The same measure, in the same setting: with `CCNC(=O)c1ccc(C=C2CC3CCC(C2)N3CCC(C(=O)N(C)C)(c2ccccc2)c2ccccc2)cc1` [Cpd 107, 4-[8-(3-Dimethylcarbamoyl-3,3-diphenyl-propyl)-8-aza-bicyclo[3.2.1]oct-3-ylidenemethyl]-N-ethyl-benzamide] the figure was 137 to 139 °C.
On to `CCNC(=O)c1ccc(C(=C2CC3CCC(C2)N3CC(=O)c2cc(C(=O)c3ccc(Cl)cc3)cn2C)c2ccccc2)cc1` [Cpd 88, 4-[(8{2-[4-(4-Chloro-benzoyl)-1-methyl-1H-pyrrol-2-yl]-2-oxo-ethyl}-8-azabicyclo[3.2.1]oct-3-ylidene)-phenyl-methyl]-N-ethyl-benzamide], for which the melting point lay within 195 to 196 °C.

The test system of the next series is acetylcholine bromide-induced abdominal constriction response. The series can be described thus: Mouse acetylcholine bromide-induced abdominal constriction assay. The class given is in vivo. Conditions: dose of 150 μmole/Kg p.o., 5.5 mg/kg acetylcholine bromide i.p. 30 min later, ten min observation. How it is done:
Mouse Acetylcholine Bromide-Induced Abdominal Constriction Assay
The mouse acetylcholine-induced abdominal constriction assay (as described by Collier et al. in Brit. J. Pharmacol. Chem. Ther., 1968, 32:295-310 with minor modifications) was used to assess analgesic potency of the compounds of formula (I). The test drugs or appropriate vehicles were administered orally (p.o.) and 30 min later the animal received an intraperitoneal (i.p.) injection of 5.5 mg/kg acetylcholine bromide (Matheson, Coleman and Bell, East Rutherford, N.J.). The mice were then placed in groups of three into glass bell jars and observed for a ten min observation period for the occurrence of an abdominal constriction response (defined as a wave of constriction and elongation passing caudally along the abdominal wall, accompanied by a twisting of the trunk and followed by extension of the hind limbs). For compounds of the present invention, the percent inhibition of this response to a nociceptive stimulus (equated to % analgesia) was calculated as follows: [formula]
For the molecule `CCN(CC)C(=O)c1ccc(C(=C2CC3CCC(C2)N3C)c2ccccc2)cc1.Cl` [Example 1, N,N-Diethyl-4-[(8-methyl-8-azabicyclo[3.2.1]oct-3-ylidene)phenylmethyl]benzamide Hydrochloride [1:1]], the “inhibition response (percent inhibition of abdominal constriction response, equated to % analgesia)” value is 87%.

The record behind these values is patent US20050004163A1, “3-(diarylmethylene)-8-azabicyclo[3.2.1]octane derivatives” (priority 2000, published 2005).
